Like-named read-outs stand apart in the source and are kept apart here.
Tests used:
GCN2 kinase = GCN2 kinase (Homo sapiens, UniProt Q9P2K8); test: GCN2 enzyme inhibition assay (Transcreener ADP2 fluorescence polarization); format: biochemical; details: 280 μM ATP
Outline: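 Run at 25 °C in 25 mM Tris-HCl pH 7.5, 50 mM NaCl, 10 mM MgCl2, 1 mM DTT with 4 nM GCN2, 280 μM ATP and 200 μM (RS)7 peptide; compound (0–8 μM final) preincubated 10 min, reaction 1 h. ADP read by antibody/tracer FP; IC50 and Ki(app) from tight-binding fit.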

[1] = molecular target: intracellular GCN2 (phosphorylation of the GCN2 substrate eIF2α) (Homo sapiens, UniProt Q9P2K8); test: GCN2 cellular inhibition assay (AlphaScreen SureFire P-eIF2α Ser51, borrelidin-treated U2OS cells); format: cell-based
Outline: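 First, U2OS cells are plated and left overnight at 37 °C. Next, compounds (from 40 μM final, 4-fold steps) and 10 μM borrelidin are added for 1 h, cells lysed, and phospho-Ser51 eIF2α detected by AlphaScreen bead sandwich. Inhibition is computed versus borrelidin-only wells.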

[2] = Enzyme activity for compounds of Formula IV, Ki(app), 25° C.
[3] = compounds of Formula IV, biomarker assay, phosphorylated eIF2α Ser51 in borrelidin-treated U2OS cells
[4] = compounds of Formula II, 4 nM GCN2 kinase
[5] = compounds of Formula II, biomarker assay, phosphorylated eIF2α Ser51 in borrelidin-treated U2OS cells

Sequence of GCN2 kinase (Q9P2K8 whole entry): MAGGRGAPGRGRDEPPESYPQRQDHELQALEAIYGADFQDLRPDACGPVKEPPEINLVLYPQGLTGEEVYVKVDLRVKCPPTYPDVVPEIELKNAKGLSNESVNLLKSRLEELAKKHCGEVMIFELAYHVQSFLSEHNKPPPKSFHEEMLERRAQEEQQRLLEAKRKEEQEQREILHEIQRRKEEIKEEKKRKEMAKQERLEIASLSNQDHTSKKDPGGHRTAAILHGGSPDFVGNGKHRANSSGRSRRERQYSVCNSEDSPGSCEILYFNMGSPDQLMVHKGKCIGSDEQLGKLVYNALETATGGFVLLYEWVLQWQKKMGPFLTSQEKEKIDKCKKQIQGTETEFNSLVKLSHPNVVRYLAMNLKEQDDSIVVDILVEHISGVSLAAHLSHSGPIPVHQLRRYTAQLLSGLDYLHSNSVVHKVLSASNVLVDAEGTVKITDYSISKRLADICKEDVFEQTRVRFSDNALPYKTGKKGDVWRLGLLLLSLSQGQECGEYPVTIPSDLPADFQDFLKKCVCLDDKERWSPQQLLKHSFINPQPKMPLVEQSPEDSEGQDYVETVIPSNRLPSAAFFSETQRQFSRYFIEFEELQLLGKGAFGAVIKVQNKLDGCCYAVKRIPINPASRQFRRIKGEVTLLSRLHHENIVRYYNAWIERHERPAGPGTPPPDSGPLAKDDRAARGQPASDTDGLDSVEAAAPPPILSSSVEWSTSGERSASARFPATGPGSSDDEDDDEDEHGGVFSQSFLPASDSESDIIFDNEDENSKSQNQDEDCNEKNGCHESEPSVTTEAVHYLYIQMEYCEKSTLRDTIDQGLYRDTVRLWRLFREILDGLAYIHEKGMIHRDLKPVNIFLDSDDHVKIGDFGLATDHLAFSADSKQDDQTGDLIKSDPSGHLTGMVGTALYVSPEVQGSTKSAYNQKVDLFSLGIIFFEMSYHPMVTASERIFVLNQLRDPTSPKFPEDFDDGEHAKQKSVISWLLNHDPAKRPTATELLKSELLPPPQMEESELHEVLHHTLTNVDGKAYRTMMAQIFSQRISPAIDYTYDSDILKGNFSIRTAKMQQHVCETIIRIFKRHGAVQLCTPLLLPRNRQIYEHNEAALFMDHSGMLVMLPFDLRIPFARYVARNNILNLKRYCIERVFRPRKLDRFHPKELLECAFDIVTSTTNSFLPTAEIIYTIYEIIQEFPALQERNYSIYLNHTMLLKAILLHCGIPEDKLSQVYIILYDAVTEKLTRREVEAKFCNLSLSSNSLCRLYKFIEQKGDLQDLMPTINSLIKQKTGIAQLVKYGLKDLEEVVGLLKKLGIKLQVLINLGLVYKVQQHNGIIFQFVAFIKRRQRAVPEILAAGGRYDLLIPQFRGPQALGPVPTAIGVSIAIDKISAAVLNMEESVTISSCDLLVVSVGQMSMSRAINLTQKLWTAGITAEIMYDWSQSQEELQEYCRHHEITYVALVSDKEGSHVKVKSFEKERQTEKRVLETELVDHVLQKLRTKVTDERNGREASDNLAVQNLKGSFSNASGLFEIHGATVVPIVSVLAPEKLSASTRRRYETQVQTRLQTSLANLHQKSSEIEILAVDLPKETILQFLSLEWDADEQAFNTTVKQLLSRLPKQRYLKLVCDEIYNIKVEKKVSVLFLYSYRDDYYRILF
Sequence of intracellular GCN2 (phosphorylation of the GCN2 substrate eIF2α) (Q9P2K8 whole entry): as above

Row | Structure (SMILES) | Ki (GCN2 kinase; [2]) | IC50 [1, 3] | Ki (GCN2 kinase; [4]) | IC50 [1, 5] | also measured
1 | CC(=O)N1CCN(c2ccnc(-c3cnc4cnc(CO)cn34)n2)CC1 [IV-26, 1-(4-(2-(6-(Hydroxymethyl)imidazo[1,2-a]pyrazin-3-yl)pyrimidin-4-yl)piperazin-1-yl)ethan-1-one] | 100 to 1000 nM | > 5000 nM | – | – | –
2 | C[C@H]1CCCN(c2ccnc(-c3cnc4cnc(C(F)F)cn34)n2)C1 [IV-137, (S)-6-(Difluoromethyl)-3-(4-(3-methylpiperidin-1-yl)pyrimidin-2-yl)imidazo[1,2-a]pyrazine] | 100 to 1000 nM | > 5000 nM | – | – | –
3 | NC(=O)Cc1cccc(-c2ccnc(-c3cnc4cnc(C(F)F)cn34)n2)c1 [IV-155, 2-(3-(2-(6-(Difluoromethyl)imidazo[1,2-a]pyrazin-3-yl)pyrimidin-4-yl)phenyl)acetamide] | 100 to 1000 nM | > 5000 nM | – | – | –
4 | CC1CN(c2nccc(-c3cnc4cnc(C(F)F)cn34)n2)CC(CNS(C)(=O)=O)C1(F)F (stereo not shown) [IV-46, N-((1-(4-(6-(Difluoromethyl)imidazo[1,2-a]pyrazin-3-yl)pyrimidin-2-yl)-4,4-difluoro-5-methylpiperidin-3-yl)methyl)methanesulfonamide] | 100 to 1000 nM | > 5000 nM | – | – | –
5 | CC1CC(CS(C)(=N)=O)C(C)N(c2ccnc(-c3cnc4sc(C(F)(F)F)cn34)n2)C1 (stereo not shown) [Compound V-17, ((2,5-Dimethyl-1-(2-(2-(trifluoromethyl)imidazo[2,1-b]thiazol-5-yl)pyrimidin-4-yl)piperidin-3-yl)methyl)(imino)(methyl)-λ^6-sulfanone] | – | – | – | – | Ki (GCN2 kinase; compounds of Formula V, 4 nM GCN2 kinase): 10 to 100 nM; IC50 ([1]; compounds of Formula V, U2OS cells, 10 μM borrelidin, 1 h, read-out: GCN2 Biomarker (IC50)): 500 to 5000 nM
6 | CS(=O)(=O)NC1CCCN(c2cc(-c3cnc4ccc(C(F)F)nn34)ncn2)C1 (stereo not shown) [II-362, N-(1-(6-(6-(Difluoromethyl)imidazo[1,2-b]pyridazin-3-yl)pyrimidin-4-yl)piperidin-3-yl)methanesulfonamide] | – | – | 10 to 1000 nM | 500 to 5000 nM | –
7 | CS(=O)(=O)NCC1CCCN(c2cc(-c3cnc4ccc(C(F)F)nn34)cc(N3CC4(COC4)C3)n2)C1 (stereo not shown) [II-83, N-((1-(4-(6-(Difluoromethyl)imidazo[1,2-b]pyridazin-3-yl)-6-(2-oxa-6-azaspiro[3.3]heptan-6-yl)pyridin-2-yl)piperidin-3-yl)methyl)methanesulfonamide] | – | – | < 10 nM | 500 to 5000 nM | –
8 | FC(F)c1ccc2ncc(-c3ccnc(N4CCn5cnnc5C4)c3)n2n1 [II-174, 7-(4-(6-(Difluoromethyl)imidazo[1,2-b]pyridazin-3-yl)pyridin-2-yl)-5,6,7,8-tetrahydro-[1,2,4]triazolo[4,3-a]pyrazine] | – | – | 10 to 1000 nM | > 5000 nM | –
9 | CS(=O)(=O)NCC1CN(c2cc(-c3cnc4ccc(C(F)F)nn34)ncn2)CC(C2CC2)O1 (stereo not shown) [II-444, N-((6-Cyclopropyl-4-(6-(6-(difluoromethyl)imidazo[1,2-b]pyridazin-3-yl)pyrimidin-4-yl)morpholin-2-yl)methyl)methanesulfonamide] | – | – | < 10 nM | < 500 nM | –
10 | CS(=O)(=O)N1CCCC(c2cc(-c3cnc4ccc(C(F)F)nn34)ncn2)CC1 (stereo not shown) [II-14, 6-(Difluoromethyl)-3-(6-(1-(methylsulfonyl)azepan-4-yl)pyrimidin-4-yl)imidazo[1,2-b]pyridazine] | – | – | 10 to 1000 nM | > 5000 nM | –
11 | CC1CN(c2ccnc(-c3cnc4cnc(C(F)F)cn34)n2)CC(C)O1 (stereo not shown) [IV-119, 4-(2-(6-(Difluoromethyl)imidazo[1,2-a]pyrazin-3-yl)pyrimidin-4-yl)-2,6-dimethylmorpholine] | 100 to 1000 nM | > 5000 nM | – | – | –
12 | C[C@H]1CN(c2cc(-c3cnn4cc(F)c(C(F)F)nc34)ncn2)C[C@@H](CNS(C)(=O)=O)C1(F)F [III-11, N-[[(3S,5S)-1-[6-[5-(Difluoromethyl)-6-fluoro-pyrazolo[1,5-a]pyrimidin-3-yl]pyrimidin-4-yl]-4,4-difluoro-5-methyl-3-piperidyl]methyl]methanesulfonamide] | – | – | – | – | Ki (GCN2 kinase; compounds of Formula III, 4 nM GCN2 kinase): < 10 nM; IC50 ([1]; compounds of Formula III, U2OS cells, 10 μM borrelidin, 1 h, read-out: GCN2 Biomarker (IC50)): < 500 nM
13 | FC(F)c1cn2c(-c3nccc(N4CC5CCC(C4)O5)n3)cnc2cn1 [IV-91, 3-(2-(6-(Difluoromethyl)imidazo[1,2-a]pyrazin-3-yl)pyrimidin-4-yl)-8-oxa-3-azabicyclo[3.2.1]octane] | 100 to 1000 nM | > 5000 nM | – | – | –
14 | N#CCC(=O)N1CCCC(c2cc(-c3cnc4ccc(C(F)F)nn34)ncn2)C1 (stereo not shown) [II-30, 3-(3-(6-(6-(Difluoromethyl)imidazo[1,2-b]pyridazin-3-yl)pyrimidin-4-yl)piperidin-1-yl)-3-oxopropanenitrile] | – | – | 10 to 1000 nM | 500 to 5000 nM | –
15 | CC1C(CNS(C)(=O)=O)C(C)(O)CCN1c1cc(-c2cnc3ccc(C(F)F)nn23)ncn1 (stereo not shown) [II-366, N-((1-(6-(6-(Difluoromethyl)imidazo[1,2-b]pyridazin-3-yl)pyrimidin-4-yl)-4-hydroxy-2,4-dimethylpiperidin-3-yl)methyl)methanesulfonamide] | – | – | < 10 nM | < 500 nM | –
16 | Cc1cc(-c2cnc3ccc(C(F)F)nn23)cc(N2CCCC(CNS(C)(=O)=O)C2)n1 (stereo not shown) [II-129, N-((1-(4-(6-(Difluoromethyl)imidazo[1,2-b]pyridazin-3-yl)-6-methylpyridin-2-yl)piperidin-3-yl)methyl)methanesulfonamide] | – | – | < 10 nM | 500 to 5000 nM | –
17 | CC1CN(c2cc(-c3cnc4ccc(C(F)F)nn34)ncn2)CC1CNS(C)(=O)=O (stereo not shown) [II-18, N-((1-(6-(6-(Difluoromethyl)imidazo[1,2-b]pyridazin-3-yl)pyrimidin-4-yl)-4-methylpyrrolidin-3-yl)methyl)methanesulfonamide] | – | – | < 10 nM | < 500 nM | –
18 | CS(=O)(=O)NCCC1CCN(c2cc(-c3cnc4ccc(C(F)F)nn34)ncn2)C1 (stereo not shown) [II-17, N-(2-(1-(6-(6-(Difluoromethyl)imidazo[1,2-b]pyridazin-3-yl)pyrimidin-4-yl)pyrrolidin-3-yl)ethyl)methanesulfonamide] | – | – | 10 to 1000 nM | 500 to 5000 nM | –
19 | CC1CN(c2ccnc(-c3cnc4cnc(C(F)(F)F)cn34)n2)C(C)C(c2c[nH]cn2)O1 (stereo not shown) [IV-525, 2-(1H-Imidazol-4-yl)-3,6-dimethyl-4-(2-(6-(trifluoromethyl)imidazo[1,2-a]pyrazin-3-yl)pyrimidin-4-yl)morpholine] | < 10 nM | 500 to 5000 nM | – | – | –
20 | C[C@@H]1C[C@H](c2c[nH]nc2F)CN(c2ccnc(-c3cnc4cnc(C(F)(F)F)cn34)n2)C1 [IV-766] | – | < 500 nM | – | – | IC50 (GCN2 kinase; compounds of Formula IV, 4 nM GCN2 kinase): 10 to 1000 nM
21 | Brc1cn2c(-c3nccc(N4CCCC(c5c[nH]cn5)C4)n3)cnc2cn1 (single isomer, unassigned) [IV-362, 3-(4-(3-(1H-Imidazol-4-yl)piperidin-1-yl)pyrimidin-2-yl)-6-bromoimidazo[1,2-a]pyrazine] | 10 to 100 nM | 500 to 5000 nM | – | – | –
22 | CS(=O)(=O)N1CC2(CCCN(c3ccnc(-c4cnc5ccc(C(F)F)nn45)c3)C2)C1 | – | – | < 10 nM | < 500 nM | –
23 | CC1(C(N)=O)CCCN(c2ccnc(-c3cnc4cnc(C(F)F)cn34)n2)C1 (stereo not shown) [IV-57, 1-(2-(6-(Difluoromethyl)imidazo[1,2-a]pyrazin-3-yl)pyrimidin-4-yl)-3-methylpiperidine-3-carboxamide] | 100 to 1000 nM | > 5000 nM | – | – | –
24 | CC1CN(c2ccnc(-c3cnc4cnc(C(F)(F)F)cn34)n2)C(C)C(c2c[nH]cn2)O1 (single isomer, unassigned) [IV-638, 2-(1H-Imidazol-4-yl)-3,6-dimethyl-4-(2-(6-(trifluoromethyl)imidazo[1,2-a]pyrazin-3-yl)pyrimidin-4-yl)morpholine] | 100 to 1000 nM | > 5000 nM | – | – | –
25 | FC(F)c1ccc2ncc(-c3cc(N4CCOC(Cn5cnnc5)C4)ncn3)n2n1 (stereo not shown) [II-29, 2-((4H-1,2,4-Triazol-4-yl)methyl)-4-(6-(6-(difluoromethyl)imidazo[1,2-b]pyridazin-3-yl)pyrimidin-4-yl)morpholine] | – | – | 10 to 1000 nM | > 5000 nM | –
26 | CC1(F)CCN(c2cc(-c3cnc4ccc(C(F)F)nn34)ncn2)CC1CNS(C)(=O)=O (single isomer, unassigned) [II-389, N-((1-(6-(6-(Difluoromethyl)imidazo[1,2-b]pyridazin-3-yl)pyrimidin-4-yl)-4-fluoro-4-methylpiperidin-3-yl)methyl)methanesulfonamide] | – | – | 10 to 1000 nM | 500 to 5000 nM | –
27 | FC(F)(F)c1cn2c(-c3nccc(N4CCC(C5CCOC5)C4)n3)cnc2cn1 (stereo not shown) [IV-608, 3-(4-(3-(Tetrahydrofuran-3-yl)pyrrolidin-1-yl)pyrimidin-2-yl)-6-(trifluoromethyl)imidazo[1,2-a]pyrazine] | 100 to 1000 nM | 500 to 5000 nM | – | – | –
28 | OC1([C@@H]2CN(c3cc(-c4cnc5ccc(C(F)F)nn45)ncn3)CCN2)CC1 [II-454, (S)-1-(4-(6-(6-(Difluoromethyl)imidazo[1,2-b]pyridazin-3-yl)pyrimidin-4-yl)piperazin-2-yl)cyclopropan-1-ol] | – | – | 10 to 1000 nM | > 5000 nM | –
29 | CC1C(CNS(C)(=O)=O)OC(C)(C)CN1c1cc(-c2cnc3ccc(C(F)F)nn23)ncn1 (single isomer, unassigned) [II-489, N-((4-(6-(6-(Difluoromethyl)imidazo[1,2-b]pyridazin-3-yl)pyrimidin-4-yl)-3,6,6-trimethylmorpholin-2-yl)methyl)methanesulfonamide] | – | – | > 1000 nM | > 5000 nM | –
